Reference: US20160120863A1, “SLC2A TRANSPORTER INHIBITORS” (IOMET PHARMA LTD., priority 2013, published 2016)

Target: T1, human GLUT1 (Homo sapiens, UniProt P11166)
T1 construct: expressed in transfected cells
T1 sequence (P11166 1-492): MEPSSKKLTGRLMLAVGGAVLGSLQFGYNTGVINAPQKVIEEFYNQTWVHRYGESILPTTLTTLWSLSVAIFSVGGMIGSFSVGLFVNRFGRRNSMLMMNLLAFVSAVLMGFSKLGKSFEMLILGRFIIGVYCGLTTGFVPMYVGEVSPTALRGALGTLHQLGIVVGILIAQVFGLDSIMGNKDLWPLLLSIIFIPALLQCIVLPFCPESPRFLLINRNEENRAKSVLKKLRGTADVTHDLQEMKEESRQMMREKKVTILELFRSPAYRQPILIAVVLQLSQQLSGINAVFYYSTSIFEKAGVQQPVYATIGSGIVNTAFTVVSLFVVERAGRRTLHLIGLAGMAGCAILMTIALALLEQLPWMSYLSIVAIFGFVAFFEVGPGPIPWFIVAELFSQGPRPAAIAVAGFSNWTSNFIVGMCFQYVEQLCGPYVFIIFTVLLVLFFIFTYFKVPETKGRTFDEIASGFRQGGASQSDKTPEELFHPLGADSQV
Assay: [3H]-deoxy-D-glucose uptake assay, GLUT1
Assay type: cell-based
Settings: [3H]-deoxy-D-glucose uptake in HEK293 cells stably expressing human GLUT1
Description: HEK293 cells were engineered to stably express either human GLUT1, GLUT2, GLUt3 or GLUT4 by transfection with the pReceiver-Lv105 plasmid, containing either hGLUT1, hGLUT2, hGLUT3, or hGLUT4 gene constructs with lipofectamine 2000, hGLUT1- hGLUT2- hGLUT3- or hGLUT4-overexpressing polyclonal populations were isolated under purinomycin selective pressure (1 μg/ml) and maintained in Dulbecco's modified Eagle's medium supplemented with 1 μg/ml purinomycin+10% foetal bovine serum (FBS).
60,000 cells per well were seeded overnight into poly-D-lysine coasted 96-well plates. […] 90 μl of test compounds were added in glucose-free uptake buffer and cells were incubated at 37° C. for 30 min.
Cells were then washed twice with ice-cold PBS and 100 μl of Microscint-20 was added per well. Glucose uptake was quantified with a scintillation counter. The half maximal inhibitory concentration (IC50) (a measure of the effectiveness of the test compound in inhibiting glucose uptake) was determined.

SMILES	GLUT1 pIC50
Cc1cc2nc(-c3ccc(Cl)cc3)c(CN3CCOCC3)n2cc1-c1ccccc1 [Compound 176]	++ (pIC50 5.00-5.99)
Cc1ccc(-c2nc3ccc(-c4ccccc4)cn3c2CN2CCN(C(=O)c3cccs3)CC2)cc1 [Compound 67]	+++ (pIC50 ≧ 6.00)
COc1cccc(-c2nc3ccc(-c4ccccc4C#N)cn3c2CN2CCN(C(=O)C3CCC3)CC2)c1 [Compound 191]	+++ (pIC50 ≧ 6.00)
CC(C)(C)c1ccc(C(=O)N2CCN(Cc3c(-c4ccc(Cl)cc4)nc4ccc(-c5ccccc5)cn34)CC2)cc1 [Compound 42]	+ (pIC50 4.00-4.99)
Cc1cccc(C)c1NC(=O)N1CCN(Cc2c(-c3ccc(Cl)cc3)nc3ccc(-c4ccccc4)cn23)CC1 [Compound 19]	+++ (pIC50 ≧ 6.00)
Clc1ccc(-c2nc3ccc(-c4cncnc4)cn3c2CN2CCOCC2)cc1 [Compound 110]	+ (pIC50 4.00-4.99)
N#Cc1ccccc1-c1ccc2nc(-c3ccc(Cl)cc3)c(CN3CCN(C(=O)c4cnccn4)CC3)n2c1 [Compound 221]	+++ (pIC50 ≧ 6.00)
COc1ccc(C(=O)N2CCN(Cc3c(-c4ccc(OC)cc4)nc4ccc(-c5ccccc5)cn34)CC2)cc1 [Compound 36]	+++ (pIC50 ≧ 6.00)
Clc1cccc(-c2nc3ccc(-c4ccccc4)cn3c2CN2CCOCC2)c1 [Compound 107]	++ (pIC50 5.00-5.99)
c1ccc(-c2ccc3nc(-c4ccncc4)c(CN4CCOCC4)n3c2)cc1 [Compound 72]	+− (pIC50 < 4.00)
O=C(c1cccnc1)N1CCN(Cc2c(-c3ccc(Cl)cc3)nc3ccc(-c4ccccc4)cn23)CC1 [Compound 145]	+++ (pIC50 ≧ 6.00)
O=C(c1cn[nH]c1)N1CCN(Cc2c(-c3ccc(Cl)cc3)nc3ccc(-c4ccccc4)cn23)CC1 [Compound 250]	+++ (pIC50 ≧ 6.00)
Clc1ccc(-c2nc3ccc(-c4cccnc4)cn3c2CN2CCOCC2)cc1 [Compound 83]	++ (pIC50 5.00-5.99)
CN(CC(=O)N(C)C)Cc1c(-c2ccc(Cl)cc2)nc2ccc(-c3ccccc3)cn12 [Compound 228]	+− (pIC50 < 4.00)
OC(c1c(-c2ccc(Cl)cc2)nc2ccc(-c3ccccc3)cn12)C1CCCN1 (stereo not drawn) [Compound 245]	+− (pIC50 < 4.00)
Cc1ccc(-c2nc3ccc(-c4ccccc4)cn3c2CN2CCN(C(=O)c3ccc(F)cc3)CC2)cc1 [Compound 50]	+++ (pIC50 ≧ 6.00)
O=C(c1cnccn1)N1CCN(Cc2c(-c3ccc(Cl)cc3)nc3cnc(C4CC4)cn23)CC1 [Compound 255]	+++ (pIC50 ≧ 6.00)
COCC(=O)N1CCN(Cc2c(-c3ccc(Cl)cc3)nc3ccc(-c4ncon4)cn23)CC1 [Compound 284]	+++ (pIC50 ≧ 6.00)
N#Cc1ccc2nc(-c3ccc(Cl)cc3)c(CN3CCOCC3)n2c1 [Compound 179]	+− (pIC50 < 4.00)
O=C(c1nccs1)N1CCN(Cc2c(-c3ccc(Cl)cc3)nc3ccc(-c4ccccc4)cn23)CC1 [Compound 266]	+++ (pIC50 ≧ 6.00)
C=C(C)c1cn2c(CN3CCOCC3)c(-c3ccc(Cl)cc3)nc2cn1 [Compound 216]	+++ (pIC50 ≧ 6.00)
CC(C)(C)OC(=O)N1CCN(Cc2c(-c3ccc(Cl)cc3)nc3ccc(-c4ccccc4)cn23)CC1 [Compound 88]	+− (pIC50 < 4.00)
COc1cccc(-c2nc3ccc(-c4ccccc4)cn3c2CN2CCN(C(=O)CC(C)(C)C)CC2)c1 [Compound 65]	++ (pIC50 5.00-5.99)
COc1ccccc1-c1ccc2nc(-c3ccc(Cl)cc3)c(CN3CCOCC3)n2c1 [Compound 85]	++ (pIC50 5.00-5.99)
COc1cccc(-c2nc3ccc(-c4ccccc4)cn3c2CN2CCN(C(=O)CC(C)C)CC2)c1 [Compound 34]	++ (pIC50 5.00-5.99)
O=C(c1ccncc1)N1CCN(Cc2c(-c3ccc(Cl)cc3)nc3ccc(-c4ccccc4)cn23)CC1 [Compound 152]	+++ (pIC50 ≧ 6.00)
O=C(c1ccnnc1)N1CCN(Cc2c(-c3ccc(Cl)cc3)nc3ccc(-c4ccccc4)cn23)CC1 [Compound 212]	+++ (pIC50 ≧ 6.00)

SMILES	GLUT1 pIC50
COc1ccccc1-c1nc2ccc(-c3ccccc3)cn2c1CN1CCOCC1 [Compound 104]	+ (pIC50 4.00-4.99)
O=C(c1c(-c2ccc(Cl)cc2)nc2ccc(-c3ccccc3)cn12)N1CCNCC1 [Compound 291]	+− (pIC50 < 4.00)
COc1ccc2nc(-c3ccc(Cl)cc3)c(CN3CCOCC3)n2c1 [Compound 154]	+ (pIC50 4.00-4.99)
CCNC(=O)c1nc2ccc(-c3ccccc3)cn2c1CN1CCOCC1 [Compound 78]	+− (pIC50 < 4.00)
CCC(=O)N1CCN(Cc2c(-c3ccc(Cl)cc3)nc3ccc(-c4ccccc4)cn23)CC1 [Compound 62]	+++ (pIC50 ≧ 6.00)
COc1cccc(-c2nc3ccc(-c4ccccc4)cn3c2CN2CCN(C(=O)C(C)C)CC2)c1 [Compound 54]	++ (pIC50 5.00-5.99)
CCNC(=O)c1cccc2nc(-c3ccc(Cl)cc3)c(CN3CCOCC3)n12 [Compound 121]	+− (pIC50 < 4.00)
O=C(c1ccc(F)cc1)N1CCN(Cc2c(-c3ccc(Cl)cc3)nc3cnc(-c4ccccc4)cn23)CC1 [Compound 168]	+++ (pIC50 ≧ 6.00)
O=C(c1ccc(F)cc1)N1CCN(Cc2c(-c3ccc(Cl)cc3)nc3ccc(-c4ccccc4)cn23)CC1 [Compound 53]	+++ (pIC50 ≧ 6.00)
Cc1ccc2nc(-c3ccccc3)c(CN3CCN(c4ccccc4F)CC3)n2c1 [Compound 7]	+ (pIC50 4.00-4.99)
N#Cc1ccccc1-c1ccc2nc(-c3ccc(Cl)cc3)c(CN3CCNC(=O)C3)n2c1 [Compound 239]	+++ (pIC50 ≧ 6.00)
O=C(C1CCC1)N1CCN(Cc2c(-c3cccc([N+](=O)[O-])c3)nc3ccc(-c4ccccc4)cn23)CC1 [Compound 33]	++ (pIC50 5.00-5.99)
Clc1ccc(-c2nc3ccc(N4CCOCC4)cn3c2CN2CCOCC2)cc1 [Compound 122]	++ (pIC50 5.00-5.99)
NC(=O)CN1CCN(Cc2c(-c3ccc(Cl)cc3)nc3ccc(-c4ccccc4)cn23)CC1 [Compound 174]	++ (pIC50 5.00-5.99)
CCC(=O)N1CCN(Cc2c(-c3ccc(Cl)cc3)nc3ccc(-c4ccccc4C#N)cn23)CC1 [Compound 219]	+++ (pIC50 ≧ 6.00)
COc1cccc(-c2nc3ccccn3c2CN2CCN(C(=O)C3CCC3)CC2)c1 [Compound 208]	+− (pIC50 < 4.00)
Clc1ccc(-c2nc3ccc(-c4ccccn4)cn3c2CN2CCOCC2)cc1 [Compound 120]	++ (pIC50 5.00-5.99)
O=C(c1cccc([N+](=O)[O-])c1)N1CCN(Cc2c(-c3ccc(Cl)cc3)nc3ccc(-c4ccccc4)cn23)CC1 [Compound 21]	++ (pIC50 5.00-5.99)
FC(F)(F)c1ccc(-c2nc3ccc(-c4ccccc4)cn3c2CN2CCOCC2)cc1 [Compound 112]	++ (pIC50 5.00-5.99)
Cc1ccc2nc(-c3ccccc3)c(CN3CCNC(=O)C3)n2c1 [Compound 30]	+− (pIC50 < 4.00)
Clc1ccc(-c2nc3ccc(-c4ccccc4)cn3c2CN2CCNCC2)cc1 [Compound 89]	+ (pIC50 4.00-4.99)
O=C(c1ccccc1F)N1CCN(Cc2c(-c3ccc(Cl)cc3)nc3ccc(-c4ccccc4)cn23)CC1 [Compound 45]	+++ (pIC50 ≧ 6.00)
NC(=O)c1ccc(-c2ccc3nc(-c4ccc(Cl)cc4)c(CN4CCOCC4)n3c2)cc1 [Compound 95]	+ (pIC50 4.00-4.99)
O=C(c1ccccc1)N1CCN(Cc2c(-c3ccc(Cl)cc3)nc3ccc(-c4ccccc4)cn23)CC1 [Compound 44]	+++ (pIC50 ≧ 6.00)
CC(=O)N1CCN(Cc2c(-c3ccc(Cl)cc3)nc3cnc(-c4ccccc4)cn23)CC1 [Compound 186]	+++ (pIC50 ≧ 6.00)
N#Cc1ccc(-c2nc3ccc(-c4ccccc4)cn3c2CN2CCOCC2)cc1 [Compound 106]	+− (pIC50 < 4.00)
FC(F)(F)c1nnc2n1CCN(Cc1c(-c3ccc(Cl)cc3)nc3ccc(-c4ccccc4)cn13)C2 [Compound 199]	++ (pIC50 5.00-5.99)
